Structures can show the parent of a compound that is named as a salt.
These molecules were tested against recombinant Human Phosphodiesterase B2 (PDE4B2) (Homo sapiens, UniProt Q07343) (assay: Human Phosphodiesterase B2 Radiometric Assay). Details: 0.1 μg/mL recombinant PDE4B2; preincubated at 30 C for 30 min; [3H]cyclic AMP 8 nM, stopped after 20 min; yttrium silicate SPA beads; read-out: PDE4B2 pIC50 (converted).
Type: biochemical
Summary of the method: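 Compounds preincubated 30 min at 30 C with 0.1 μg/mL recombinant PDE4B2 in 50 mM HEPES pH 7.5, 8.3 mM MgCl2, 1.7 mM EGTA, 0.01% Brij 35.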

recombinant Human Phosphodiesterase B2 (PDE4B2), sequence (Q07343 1-564 isoform Q07343-2): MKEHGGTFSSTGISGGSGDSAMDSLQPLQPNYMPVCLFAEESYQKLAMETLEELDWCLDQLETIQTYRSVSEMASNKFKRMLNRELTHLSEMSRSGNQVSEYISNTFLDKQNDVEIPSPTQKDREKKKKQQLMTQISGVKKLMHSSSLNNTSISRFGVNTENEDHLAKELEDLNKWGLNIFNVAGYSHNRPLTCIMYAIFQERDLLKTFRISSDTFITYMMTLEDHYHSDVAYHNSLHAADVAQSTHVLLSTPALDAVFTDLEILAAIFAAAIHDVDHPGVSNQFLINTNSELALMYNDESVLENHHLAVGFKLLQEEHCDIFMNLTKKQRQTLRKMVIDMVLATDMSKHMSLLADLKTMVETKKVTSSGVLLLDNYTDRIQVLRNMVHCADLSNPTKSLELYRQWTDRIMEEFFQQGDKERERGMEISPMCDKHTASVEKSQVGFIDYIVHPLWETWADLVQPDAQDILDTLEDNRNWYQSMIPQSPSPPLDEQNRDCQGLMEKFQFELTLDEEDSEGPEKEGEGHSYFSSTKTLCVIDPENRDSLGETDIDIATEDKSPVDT

| Compound | IC50 [pM] |
| --- | --- |
| Cc1cccc(CN[C@H]2CC[C@@H](NC(=O)c3cc(F)cnc3Oc3cccc(-c4ccc(O)cc4CN4CCOCC4)c3)CC2)n1 [Example 6, 5-fluoro-2-(4′-hydroxy-2′-(morpholinomethyl)biphenyl-3-yloxy)-N-((1s,4s)-4-((6-methylpyridin-2-yl)methylamino)cyclohexyl)nicotinamide] | 3160 |
| C[C@@H]1CN(Cc2ccc(-c3cccc(Oc4ncc(F)cc4C(=O)N[C@H]4CC[C@@H](NC(=O)c5cc6n(n5)CCCC6)CC4)c3)cc2)C[C@H](C)N1 [Example 113, N-((1s,4s)-4-(2-(4′-(((3S,5R)-3,5-dimethylpiperazin-1-yl)methyl)biphenyl-3-yloxy)-5-fluoronicotinamido)cyclohexyl)-4,5,6,7-tetrahydropyrazolo[1,5-a]pyridine-2-carboxamide] | 50.1 |
| C[C@@H]1CN(CCc2ccc(-c3cccc(Oc4ncc(F)cc4C(=O)N[C@H]4CC[C@@H](NC(=O)c5cnc6ccccc6n5)CC4)c3)cc2)C[C@H](C)N1 [Example 99, N-((1s,4s)-4-(2-(4′-(2-((3S,5R)-3,5-dimethylpiperazin-1-yl)ethyl)biphenyl-3-yloxy)-5-fluoronicotinamido)cyclohexyl)quinoxaline-2-carboxamide] | 79.4 |
| CC(C)c1nc(C(=O)N[C@H]2CC[C@@H](NC(=O)c3cc(F)cnc3Oc3cccc(-c4ccc(O)cc4CN4CCOCC4)c3)CC2)cs1 [Example 39, N-((1s,4s)-4-(5-fluoro-2-(4′-hydroxy-2′-(morpholinomethyl)biphenyl-3-yloxy)nicotinamido)cyclohexyl)-2-isopropylthiazole-4-carboxamide] | 20 |
| Cc1nc(C(=O)N[C@H]2CC[C@@H](NC(=O)c3cc(F)cnc3Oc3cccc(-c4ccc(O)cc4CN(C)CC(=O)N(C)C)c3)CC2)cs1 [Example 30, N-((1s,4s)-4-(2-(2′-(((2-(dimethylamino)-2-oxoethyl)(methyl)amino)methyl)-4′-hydroxybiphenyl-3-yloxy)-5-fluoronicotinamido)cyclohexyl)-2-methylthiazole-4-carboxamide] | 39.8 |
| Cc1nc(C(=O)N[C@H]2CC[C@@H](NC(=O)c3cc(F)cnc3Oc3cccc(-c4cc(O)cc(CN5C[C@@H](C)N[C@@H](C)C5)c4)c3)CC2)cs1 [Example 65, N-((1s,4s)-4-(2-(3′-(((3R,5S)-3,5-dimethylpiperazin-1-yl)methyl)-5′-hydroxybiphenyl-3-yloxy)-5-fluoronicotinamido)cyclohexyl)-2-methylthiazole-4-carboxamide] | 39.8 |
| Cc1ccc(O)c(C(=O)N[C@H]2CC[C@@H](NC(=O)c3cc(F)cnc3Oc3cccc(-c4ccc(O)c(CN5C[C@@H](C)N[C@@H](C)C5)c4)c3)CC2)c1 [Example 95, 2-(3′-(((3S,5R)-3,5-dimethylpiperazin-1-yl)methyl)-4′-hydroxybiphenyl-3-yloxy)-5-fluoro-N-((1s,4s)-4-(2-hydroxy-5-methylbenzamido)cyclohexyl)nicotinamide] | 200 |
| Cc1nc(C(=O)N[C@H]2CC[C@@H](NC(=O)c3cc(F)cnc3Oc3cccc(-c4ccc(CN5CCCN(C)CC5)cc4)c3)CC2)cs1 [Example 60, N-((1s,4s)-4-(5-fluoro-2-(4′-((4-methyl-1,4-diazepan-1-yl)methyl)biphenyl-3-yloxy)nicotinamido)cyclohexyl)-2-methylthiazole-4-carboxamide] | 50.1 |
| C[C@@H]1CN(Cc2ccc(-c3cccc(Oc4ncc(F)cc4C(=O)N[C@H]4CC[C@@H](NC(=O)c5csc(CO)n5)CC4)c3)cc2)C[C@H](C)N1 [Example 70, N-((1s,4s)-4-(2-(4′-(((3S,5R)-3,5-dimethylpiperazin-1-yl)methyl)biphenyl-3-yloxy)-5-fluoronicotinamido)cyclohexyl)-2-(hydroxymethyl)thiazole-4-carboxamide] | 79.4 |
| Cc1cccc2nc(C(=O)N[C@H]3CC[C@@H](NC(=O)c4cc(F)cnc4Oc4cccc(-c5cccc(CN6CCNCC6)c5)c4)CC3)cn12 [Example 100, N-((1s,4s)-4-(5-fluoro-2-(3′-(piperazin-1-ylmethyl)biphenyl-3-yloxy)nicotinamido)cyclohexyl)-5-methylimidazo[1,2-a]pyridine-2-carboxamide] | 158 |
| O=C(N[C@H]1CC[C@@H](NC(=O)c2cc(F)cnc2Oc2cccc(-c3ccc(O)cc3CN3CCOCC3)c2)CC1)c1csc(C(F)(F)F)n1 [Example 36, N-((1s,4s)-4-(5-fluoro-2-(4′-hydroxy-2′-(morpholinomethyl)biphenyl-3-yloxy)nicotinamido)cyclohexyl)-2-(trifluoromethyl)thiazole-4-carboxamide] | 100 |
| Cc1nc(C(=O)N[C@H]2CC[C@@H](NC(=O)c3cc(F)cnc3Oc3cccc(-c4cccc(CN5C[C@@H](C)N[C@@H](C)C5)c4O)c3)CC2)cs1 [Example 69, N-((1s,4s)-4-(2-(3′-(((3R,5S)-3,5-dimethylpiperazin-1-yl)methyl)-2′-hydroxybiphenyl-3-yloxy)-5-fluoronicotinamido)cyclohexyl)-2-methylthiazole-4-carboxamide] | 398 |
| CN(C)CCN(C)Cc1ccc(-c2cccc(Oc3ncc(F)cc3C(=O)N[C@H]3CC[C@@H](NC(=O)c4cc5n(n4)CCCC5)CC3)c2)cc1 [Example 110, N-((1s,4s)-4-(2-(4′-(((2-(dimethylamino)ethyl)(methyl)amino)methyl)biphenyl-3-yloxy)-5-fluoronicotinamido)cyclohexyl)-4,5,6,7-tetrahydropyrazolo[1,5-a]pyridine-2-carboxamide hydrochloride] | 200 |
| O=C(N[C@H]1CC[C@@H](NC(=O)c2cc(F)cnc2Oc2cccc(-c3ccc(O)cc3CN3CCCOCC3)c2)CC1)c1cn2cc(F)ccc2n1 [Example 13, N-((1s,4s)-4-(2-(2′-((1,4-oxazepan-4-yl)methyl)-4′-hydroxybiphenyl-3-yloxy)-5-fluoronicotinamido)cyclohexyl)-6-fluoroimidazo[1,2-a]pyridine-2-carboxamide] | 20 |
| Cc1nc(CN[C@H]2CC[C@@H](NC(=O)c3cc(F)cnc3Oc3cccc(-c4ccc(O)cc4CN4CCOCC4)c3)CC2)cs1 [Example 5, 5-fluoro-2-(4′-hydroxy-2′-(morpholinomethyl)biphenyl-3-yloxy)-N-((1s,4s)-4-((2-methylthiazol-4-yl)methylamino)cyclohexyl)nicotinamide] | 5010 |

More lines, now with the values ahead:

| IC50 [pM] | Compound |
| --- | --- |
| 31.6 | Cc1cc(C(=O)N[C@H]2CC[C@@H](NC(=O)c3cc(F)cnc3Oc3cccc(-c4ccc(CCN5CCC(N6CCCC6)CC5)cc4)c3)CC2)nn1C [Example 154, N-((1s,4s)-4-(1,5-dimethyl-1H-pyrazole-3-carboxamido)cyclohexyl)-5-fluoro-2-(4′-(2-(4-(pyrrolidin-1-yl)piperidin-1-yl)ethyl)biphenyl-3-yloxy)nicotinamide] |
| 25.1 | Cc1cc(C(=O)N[C@H]2CC[C@@H](NC(=O)c3cc(F)cnc3Oc3cccc(-c4ccc(CN5CCSCC5)cc4CN4CCOCC4)c3)CC2)nn1C [Example 138, N-((1s,4s)-4-(1,5-dimethyl-1H-pyrazole-3-carboxamido)cyclohexyl)-5-fluoro-2-(2′-(morpholinomethyl)-4′-(thiomorpholinomethyl)biphenyl-3-yloxy)nicotinamide] |
| 50.1 | Cn1nc(C(=O)N[C@H]2CC[C@@H](NC(=O)c3cc(F)cnc3Oc3cccc(-c4ccc(CCN5CCNCC5)cc4)c3)CC2)cc1C(F)(F)F [Example 176, 5-Fluoro-N-((1s,4s)-4-(1-methyl-5-(trifluoromethyl)-1H-pyrazole-3-carboxamido)cyclohexyl)-2-(4′-(2-(piperazin-1-yl)ethyl)biphenyl-3-yloxy)nicotinamide] |
| 39.8 | O=C(N[C@H]1CC[C@@H](NC(=O)c2cc(F)cnc2Oc2cccc(-c3ccc(CCCN4CCNCC4)cc3)c2)CC1)c1cc2ccccn2n1 [Example 132, N-((1s,4s)-4-(5-fluoro-2-(4′-(3-(piperazin-1-yl)propyl)biphenyl-3-yloxy)nicotinamido)cyclohexyl)pyrazolo[1,5-a]pyridine-2-carboxamide] |
| 63.1 | Cc1cccc2nc(C(=O)N[C@H]3CC[C@@H](NC(=O)c4cc(F)cnc4Oc4cccc(-c5ccc(CN6C[C@@H](C)N[C@@H](C)C6)cc5CN5CCOCC5)c4)CC3)cn12 [Example 123, N-((1s,4s)-4-(2-(4′-(((3S,5R)-3,5-dimethylpiperazin-1-yl)methyl)-2′-(morpholinomethyl)biphenyl-3-yloxy)-5-fluoronicotinamido)cyclohexyl)-5-methylimidazo[1,2-a]pyridine-2-carboxamide] |
| 631 | O=C(N[C@H]1CC[C@@H](NC(=O)c2cc(F)cnc2Oc2cccc(-c3ccc(CNCCCN4CCOCC4)cc3)c2)CC1)c1cn2cc(F)ccc2n1 [Example 115, 6-fluoro-N-((1s,4s)-4-(5-fluoro-2-(4′-((3-morpholinopropylamino)methyl)biphenyl-3-yloxy)nicotinamido)cyclohexyl)imidazo[1,2-a]pyridine-2-carboxamide] |
| 25.1 | Cc1cc(C(=O)N[C@H]2CC[C@@H](NC(=O)c3cc(F)cnc3Oc3cccc(-c4ccc(CCCN5CCNC[C@H]5C)cc4)c3)CC2)nn1C [Example 142, N-((1s,4s)-4-(1,5-dimethyl-1H-pyrazole-3-carboxamido)cyclohexyl)-5-fluoro-2-(4′-(3-((R)-2-methylpiperazin-1-yl)propyl)biphenyl-3-yloxy)nicotinamide] |
| 31.6 | C[C@@H]1CN(Cc2ccc(-c3cccc(Oc4ncc(F)cc4C(=O)N[C@H]4CC[C@@H](NC(=O)c5cccc6cccnc56)CC4)c3)c(CN3CCOCC3)c2)C[C@H](C)N1 [Example 146, N-((1s,4s)-4-(2-(4′-(((3S,5R)-3,5-dimethylpiperazin-1-yl)methyl)-2′-(morpholinomethyl)biphenyl-3-yloxy)-5-fluoronicotinamido)cyclohexyl)quinoline-8-carboxamide] |

Reference: patent publication US8273774B2, “Phenoxypyridinylamide compounds” (AstraZeneca AB, priority 2008, dated 2012)
